For 46 molecules, EC50 results are on record in patent US8372874B2, “Compounds which selectively modulate the CB2 receptor” (Boehringer Ingelheim International GmbH, priority 2008, dated 2013).

One assay has as its target T1, human CB1R (Homo sapiens, UniProt P21554).
T1 construct: host or cells: CHO cells
Nature of the assay: CB1R mediated modulation of cAMP synthesis. The format is cell-based. How it is done:
C. CB1R Mediated Modulation of cAMP Synthesis:
Compounds of the invention are evaluated for their CB1 agonist or inverse agonistic activity in accordance with the following experimental method.
(§1) CHO cells expressing human CB1R (Euroscreen) are plated at a density of 5000 cells per well in 384 well plates and incubated overnight at 37° C. After removing the media, the cells are treated with test compounds diluted in stimulation buffer containing 1 mM IBMX, 0.25% BSA and 10 uM Forskolin. The assay is incubated for 30 minutes at 37° C. Cells are lysed and the cAMP concentration is measured using DiscoverX-XS cAMP kit, following the manufacturer's protocol. In this setting, agonists will decrease forskolin induced production of cAMP while inverse agonists will further increase forskolin induced production of cAMP. EC50 of agonists are calculated as follows. The maximal amount of cAMP produced by forskolin compared to the level of cAMP inhibited by 1 uM CP55940 is defined as 100%. […] Data is analyzed using a four-parameter logistic model. (Model 205 of XLfit 4.0).

The next assay concerns the target T2, human CB2R (Homo sapiens, UniProt P34972).
T2 construct: host or cells: CHO cells
Nature of the assay: CB2R mediated modulation of cAMP synthesis. The format is cell-based. How it is done:
B. CB2R Mediated Modulation of cAMP Synthesis:
Compounds of the invention are evaluated for their CB2 agonist or inverse agonistic activity in accordance with the following experimental method.
as §1, with “CB2R” for “CB1R”

Setting [1] is: CHO cells expressing human CB1R, inhibition of forskolin-stimulated cAMP synthesis, read-out: CB1 EC50.
[2] abbreviates: CHO cells expressing human CB2R, inhibition of forskolin-stimulated cAMP synthesis, read-out: CB2 EC50.

pEC50: −log10 of the molar value. Read-outs that look alike come from different tables or passages of the source.

What is called pEC50 is the EC50 on a negative log10 scale, so that one unit is a factor of ten.

T2 sequence (P34972 whole entry): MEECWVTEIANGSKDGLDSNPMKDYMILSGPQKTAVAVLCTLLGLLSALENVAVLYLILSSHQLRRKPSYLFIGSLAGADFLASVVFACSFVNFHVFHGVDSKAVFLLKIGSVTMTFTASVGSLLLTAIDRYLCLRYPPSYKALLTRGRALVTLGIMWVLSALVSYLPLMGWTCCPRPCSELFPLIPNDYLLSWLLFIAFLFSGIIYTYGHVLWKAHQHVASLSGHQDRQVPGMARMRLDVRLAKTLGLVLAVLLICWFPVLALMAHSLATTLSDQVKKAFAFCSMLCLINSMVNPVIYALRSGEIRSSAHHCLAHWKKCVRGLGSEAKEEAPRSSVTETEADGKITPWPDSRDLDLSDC
T1 sequence (P21554 whole entry): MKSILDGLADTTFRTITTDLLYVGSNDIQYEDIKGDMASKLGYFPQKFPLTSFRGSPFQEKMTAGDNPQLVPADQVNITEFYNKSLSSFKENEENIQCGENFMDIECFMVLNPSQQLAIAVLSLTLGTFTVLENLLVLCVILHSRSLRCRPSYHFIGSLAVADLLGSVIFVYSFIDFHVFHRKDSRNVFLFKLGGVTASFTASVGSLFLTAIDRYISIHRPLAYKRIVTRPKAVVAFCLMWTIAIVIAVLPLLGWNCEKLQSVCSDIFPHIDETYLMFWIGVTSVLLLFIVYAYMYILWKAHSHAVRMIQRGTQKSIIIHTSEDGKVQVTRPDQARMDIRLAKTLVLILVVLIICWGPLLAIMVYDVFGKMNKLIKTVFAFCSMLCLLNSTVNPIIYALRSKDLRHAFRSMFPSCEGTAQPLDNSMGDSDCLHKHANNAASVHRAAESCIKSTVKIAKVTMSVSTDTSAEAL

`CC(C)(C(=O)Nc1cc(C2CCOCC2)no1)S(=O)(=O)C1CCOCC1`: the values for the pEC50 on human CB1R (setting [1]) and at human CB2R (setting [2]) were less than 4.30 and 6.46, respectively.
On to `CC(C)CCS(=O)(=O)C(C)(C)C(=O)Nc1cc(C2CCOCC2)no1`, for which the pEC50 on human CB1R was less than 4.70; on human CB2R, 7.01.
On the same counts, the results for `CC(C)(OCCO)c1cc(NC(=O)C(C)(C)S(=O)(=O)C2CCOCC2)on1` are less than 4.30 and 7.55.
On the same counts, the results for `CC[C@H](O)C(C)(C)c1cc(NC(=O)C(C)(C)S(=O)(=O)C2CCOCC2)on1` are less than 4.30 and 7.33.
For `CCn1nc(NC(=O)C(C)(C)S(=O)(=O)C2CCOCC2)nc1-c1ccc(O)cc1`, the pEC50 is less than 4.70 at human CB1R and 8.00 on human CB2R.
In the case of `COCCOCC(C)(C)c1cc(NC(=O)C(C)(C)S(=O)(=O)C2CCOCC2)on1`, the pEC50 at human CB1R is less than 4.30; at human CB2R, 8.68.
On the same counts, the results for `C[C@H](O)C(C)(C)c1cc(NC(=O)C(C)(C)S(=O)(=O)C2CCOCC2)no1` are less than 4.30 and 7.60.
In the case of `CC(C)(C(=O)Nc1cc(C2CCOC2)no1)S(=O)(=O)CCCC(F)(F)F` (centres unmarked), the pEC50 on human CB1R (setting [1]) is less than 4.30; on human CB2R (setting [2]), 6.76.
Consider `CC1(c2cc(NC(=O)C(C)(C)S(=O)(=O)C3CCOCC3)on2)CCCO1` (centres unmarked), for which the results for the negative-log EC50 (pEC50) at human CB1R and at human CB2R were less than 4.30 and 7.89, respectively.
In the case of `CC(O)C(C)(C)c1cc(NC(=O)C(C)(C)S(=O)(=O)C2CCOCC2)on1` (centres unmarked), the pEC50 at human CB1R was less than 4.30; on human CB2R, 7.85.
Turning to `CCn1nc(NC(=O)C(C)(C)S(=O)(=O)C2CCOCC2)nc1-c1ccc(OC)cc1`, the pEC50 was less than 3.30 on human CB1R and 7.11 on human CB2R.
In the case of `CC(C)(C(=O)Nc1cc(C2CCOCC2)no1)S(=O)(=O)CCCC(F)(F)F`, the values for the pEC50 on human CB1R (setting [1]) and at human CB2R (setting [2]) were less than 4.30 and 6.43, respectively.
With `COCCOCC1(c2cc(NC(=O)C(C)(C)S(=O)(=O)C3CCOCC3)on2)CCCCC1`, the results for the pEC50 at human CB1R and on human CB2R were less than 4.30 and 7.23, respectively.
For `CC(C)(COCCO)c1cc(NC(=O)C(C)(C)S(=O)(=O)CC2CCOCC2)on1`, the pEC50 at human CB1R was less than 4.30; on human CB2R, 7.89.
In the case of `C[C@H](OC1CCCOC1)C(C)(C)c1cc(NC(=O)C(C)(C)S(=O)(=O)C2CCOCC2)on1` (some centres unmarked), the negative logarithm of the EC50 (pEC50) on human CB1R was less than 4.30; at human CB2R, 8.55.
For the molecule `CCOCCOCC(C)(C)c1cc(NC(=O)C(C)(C)S(=O)(=O)C2CCOCC2)on1`, the values for the pEC50 at human CB1R and at human CB2R were less than 4.30 and 8.82, respectively.
On the same counts, the results for `COCCOCC(C)(C)c1cc(NC(=O)C(C)(C)S(=O)(=O)CC2CCOCC2)no1` are less than 4.30 and 7.82.
With `C[C@H](O)C(C)(C)c1cc(NC(=O)C(C)(C)S(=O)(=O)CC2CCOCC2)no1`, the pEC50 is less than 4.30 on human CB1R (setting [1]) and 6.92 on human CB2R (setting [2]).
Take `CC(C)(COCCO)c1cc(NC(=O)C(C)(C)S(=O)(=O)C2CCN(S(C)(=O)=O)CC2)on1`: the pEC50 is less than 4.30 on human CB1R and 8.00 on human CB2R.
Turning to `CC(C)(COCCO)c1cc(NC(=O)C(C)(C)S(=O)(=O)C2CCOCC2)no1`, the results for the pEC50 at human CB1R and at human CB2R were less than 4.30 and 8.62, respectively.
Regarding `C[C@H](O)C(C)(C)c1cc(NC(=O)C(C)(C)S(=O)(=O)C2CCOCC2)on1`, the negative-log EC50 (pEC50) is less than 4.30 on human CB1R and 7.85 on human CB2R.
On the same counts, the results for `CC[C@@H](O)C(C)(C)c1cc(NC(=O)C(C)(C)S(=O)(=O)C2CCOCC2)on1` are less than 4.30 and 7.15.
On the same counts, the results for `CC(C)(COC(=O)c1ccccc1)c1cc(NC(=O)C(C)(C)S(=O)(=O)C2CCOCC2)on1` are less than 4.30 and 7.96.
Regarding `C[C@H](O)C(C)(C)c1cc(NC(=O)C(C)(C)S(=O)(=O)CC[C@@H]2CCOC2)no1`, the pEC50 on human CB1R was 4.68; on human CB2R, 7.82.
With `CC(C)(C(=O)Nc1cc(C2(COC3CCCCO3)CCCCC2)no1)S(=O)(=O)C1CCOCC1` (centres unmarked), the values for the pEC50 at human CB1R and on human CB2R were less than 4.30 and 7.66, respectively.
On to `COCCOCC(C)(C)c1cc(NC(=O)C(C)(C)S(=O)(=O)C[C@H]2CCOC2)on1`, for which the results for the pEC50 at human CB1R and on human CB2R were less than 4.30 and 7.01, respectively.
As for `COCCOCC(C)(C)c1cc(NC(=O)C(C)(C)S(=O)(=O)CCC(F)(F)F)on1`, the results for the pEC50 on human CB1R and at human CB2R were less than 4.30 and 7.57, respectively.
On the same counts, the results for `CC(C)(C(=O)Nc1cc(C2(COC3CCCCO3)CCCC2)no1)S(=O)(=O)c1ccc(F)cc1` (centres unmarked) are less than 4.30 and 8.28.
For the molecule `COCCOCC(C)(C)c1cc(NC(=O)C(C)(C)S(=O)(=O)C2CCN(S(C)(=O)=O)CC2)on1`, the negative logarithm of the EC50 (pEC50) is less than 4.30 on human CB1R and 7.96 at human CB2R.
On the same counts, the results for `C[C@@H](O)C(C)(C)c1cc(NC(=O)C(C)(C)S(=O)(=O)C2CCOCC2)on1` are less than 4.30 and 7.70.
In the case of `CC(C)(O)C(C)(C)c1cc(NC(=O)C(C)(C)S(=O)(=O)C2CCOCC2)on1`, the pEC50 on human CB1R (setting [1]) was less than 4.30; at human CB2R (setting [2]), 6.94.
On the same counts, the results for `CC(C)(C(=O)Nc1cc(C2CCCO2)no1)S(=O)(=O)C1CCOCC1` (centres unmarked) are less than 4.30 and 7.00.
Turning to `C[C@H](O)C(C)(C)c1cc(NC(=O)C(C)(C)S(=O)(=O)C2CCN(S(C)(=O)=O)CC2)on1`, the pEC50 at human CB1R (setting [1]) is less than 4.30; on human CB2R (setting [2]), 6.97.
For the molecule `COc1ccc(COCC(C)(C)c2cc(NC(=O)C(C)(C)S(=O)(=O)CC3CCOCC3)on2)cc1`, the pEC50 on human CB1R (setting [1]) was less than 4.70; on human CB2R (setting [2]), 6.78.
As to `COCCOC(C)(C)c1cc(NC(=O)C(C)(C)S(=O)(=O)C2CCOCC2)on1`, the pEC50 on human CB1R was less than 4.30; at human CB2R it was 7.02.
On the same counts, the results for `CC(O)C(C)(C)c1cc(NC(=O)C(C)(C)S(=O)(=O)CCCC(F)(F)F)on1` (centres unmarked) are less than 4.70 and 7.51.
`CC(C)C(O)C(C)(C)c1cc(NC(=O)C(C)(C)S(=O)(=O)C2CCOCC2)on1` (centres unmarked): the figures for the pEC50 at human CB1R (setting [1]) and on human CB2R (setting [2]) were less than 4.30 and 6.82, respectively.
Take `CCC(O)C(C)(C)c1cc(NC(=O)C(C)(C)S(=O)(=O)C2CCOCC2)on1` (centres unmarked): the pEC50 on human CB1R is less than 4.30; at human CB2R, 7.54.
As for `CC(C)(C(=O)Nc1cc([C@@H]2CCCO2)no1)S(=O)(=O)C1CCOCC1`, the negative-log EC50 (pEC50) on human CB1R (setting [1]) is less than 4.30; at human CB2R (setting [2]), 6.86.
Regarding `CO[C@@H](C)C(C)(C)c1cc(NC(=O)C(C)(C)S(=O)(=O)C2CCOCC2)no1`, the results for the negative-log EC50 (pEC50) on human CB1R and on human CB2R were less than 4.30 and 7.97, respectively.
On the same counts, the results for `CO[C@@H](C)C(C)(C)c1cc(NC(=O)C(C)(C)S(=O)(=O)CC2CCOCC2)no1` are less than 4.30 and 7.52.
On the same counts, the results for `COCCOCC(C)(C)c1cc(NC(=O)C(C)(C)S(=O)(=O)C2CCOCC2)no1` are less than 4.30 and 7.82.
`CC[C@H](C)S(=O)(=O)C(C)(C)C(=O)Nc1cc(C(C)(C)[C@H](C)O)no1`: the pEC50 was less than 4.30 on human CB1R (setting [1]) and 6.60 at human CB2R (setting [2]).
For the molecule `CC(=O)OCC(C)(C)c1cc(NC(=O)C(C)(C)S(=O)(=O)C2CCOCC2)on1`, the pEC50 at human CB1R was less than 4.30; at human CB2R, 8.38.
`C[C@H](O)C(C)(C)c1cc(NC(=O)C(C)(C)S(=O)(=O)c2ccc(F)cc2)on1`: the pEC50 on human CB1R was less than 4.30; at human CB2R it was 7.38.
For `CC(C)(C)C(=O)OCC(C)(C)c1cc(NC(=O)C(C)(C)S(=O)(=O)C2CCOCC2)on1`, the pEC50 at human CB1R is less than 4.30; at human CB2R, 7.30.
